In PubChem BioAssay (NCI):
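1) Cells in 96-well plates. 2) Compound, 48 h, 5 concentrations. 3) Linear interpolation between surrounding doses. 4) Unreached endpoint = highest concentration. GI50 = concentration required for 50% inhibition of growth. Definition used: TGI = concentration required for complete inhibition of growth.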

Columns and labels:
Experiment in all cases: DTP human tumour cell line panel, 48 h
IGROV1 ovarian = tested on: IGROV1 ovarian
HCC-2998 colon = tested on: HCC-2998 colon
SK-MEL-2 melanoma = tested on: SK-MEL-2 melanoma
UACC-257 melanoma = tested on: UACC-257 melanoma
HCT-116 colon = tested on: HCT-116 colon
MOLT-4 leukemia = tested on: MOLT-4 leukemia
NCI-H226 lung = tested on: NCI-H226 lung
HT29 colon = tested on: HT29 colon
HOP-92 NSCLC = tested on: HOP-92 NSCLC
PC-3 prostate = tested on: PC-3 prostate
OVCAR-3 ovarian = tested on: OVCAR-3 ovarian
K-562 leukemia = tested on: K-562 leukemia
UO-31 renal = tested on: UO-31 renal
M14 melanoma = tested on: M14 melanoma
COLO 205 colon = tested on: COLO 205 colon
SF-539 CNS = tested on: SF-539 CNS
T-47D breast = tested on: T-47D breast
RXF 393 renal = tested on: RXF 393 renal
MDA-MB-231 breast = tested on: MDA-MB-231 breast
786-0 renal = tested on: 786-0 renal
NCI/ADR-RES ovarian = tested on: NCI/ADR-RES ovarian
OVCAR-8 ovarian = tested on: OVCAR-8 ovarian
SW-620 colon = tested on: SW-620 colon
NCI-H460 lung = tested on: NCI-H460 lung
SNB-75 CNS = tested on: SNB-75 CNS
CCRF-CEM leukemia = tested on: CCRF-CEM leukemia
NCI-H23 lung = tested on: NCI-H23 lung
DU-145 prostate = tested on: DU-145 prostate
SR leukemia = tested on: SR leukemia
A498 renal = tested on: A498 renal
LOX IMVI melanoma = tested on: LOX IMVI melanoma
OVCAR-4 ovarian = tested on: OVCAR-4 ovarian
KM12 colon = tested on: KM12 colon
OVCAR-5 ovarian = tested on: OVCAR-5 ovarian
TK-10 renal = tested on: TK-10 renal
HL-60(TB) leukemia = tested on: HL-60(TB) leukemia
SNB-19 CNS = tested on: SNB-19 CNS
CAKI-1 renal = tested on: CAKI-1 renal
UACC-62 melanoma = tested on: UACC-62 melanoma
U251 CNS = tested on: U251 CNS
SK-MEL-5 melanoma = tested on: SK-MEL-5 melanoma
RPMI-8226 leukemia = tested on: RPMI-8226 leukemia
SF-295 CNS = tested on: SF-295 CNS
MCF7 breast = tested on: MCF7 breast
MDA-MB-435 = tested on: MDA-MB-435
EKVX NSCLC = tested on: EKVX NSCLC
HS 578T breast = tested on: HS 578T breast
HOP-62 NSCLC = tested on: HOP-62 NSCLC
SK-OV-3 ovarian = tested on: SK-OV-3 ovarian
A549 NSCLC = tested on: A549 NSCLC
HCT-15 colon = tested on: HCT-15 colon
MALME-3M melanoma = tested on: MALME-3M melanoma
BT-549 breast = tested on: BT-549 breast
SN12C renal = tested on: SN12C renal
SK-MEL-28 melanoma = tested on: SK-MEL-28 melanoma
NCI-H522 lung = tested on: NCI-H522 lung
SF-268 CNS = tested on: SF-268 CNS
ACHN renal = tested on: ACHN renal

## COc1cc2c(cc1OCCCCCOc1ccc(-n3c(C)nc4ccccc4c3=O)cc1)N=C[C@@H]1CCCN1C2=O
IGROV1 ovarian
  GI50: 0.182 µM
  TGI: 0.64 µM
HCC-2998 colon
  GI50: 0.256 µM
  TGI: 0.685 µM
SK-MEL-2 melanoma
  GI50: 0.377 µM
  TGI: 1.25 µM
UACC-257 melanoma
  GI50: 0.434 µM
  TGI: 1.48 µM
HCT-116 colon
  GI50: 0.167 µM
  TGI: 0.327 µM
MOLT-4 leukemia
  GI50: 0.196 µM
  TGI: 0.5 µM
NCI-H226 lung
  GI50: 0.214 µM
  TGI: 0.466 µM
HT29 colon
  GI50: 0.317 µM
  TGI: > 100 µM
HOP-92 NSCLC
  GI50: 0.394 µM
  TGI: 7.38 µM
PC-3 prostate
  GI50: 0.34 µM
  TGI: 2.89 µM
OVCAR-3 ovarian
  GI50: 0.346 µM
  TGI: 15.5 µM
K-562 leukemia
  GI50: 0.164 µM
UO-31 renal
  GI50: 0.336 µM
  TGI: 1.71 µM
M14 melanoma
  GI50: 0.18 µM
  TGI: 0.375 µM
COLO 205 colon
  GI50: 0.165 µM
  TGI: 0.37 µM
SF-539 CNS
  GI50: 0.285 µM
  TGI: 0.728 µM
T-47D breast
  GI50: 0.324 µM
RXF 393 renal
  GI50: 0.21 µM
  TGI: 0.39 µM
MDA-MB-231 breast
  GI50: 0.188 µM
  TGI: 0.636 µM
786-0 renal
  GI50: 0.157 µM
  TGI: 0.36 µM
NCI/ADR-RES ovarian
  GI50: 1.96 µM
  TGI: 6.31 µM
OVCAR-8 ovarian
  GI50: 0.363 µM
  TGI: 3 µM
SW-620 colon
  GI50: 0.323 µM
  TGI: 2.8 µM
NCI-H460 lung
  GI50: 0.248 µM
  TGI: 0.691 µM
SNB-75 CNS
  GI50: 0.408 µM
  TGI: 3.43 µM
CCRF-CEM leukemia
  GI50: 0.21 µM
  TGI: 0.588 µM
NCI-H23 lung
  GI50: 0.226 µM
  TGI: 0.528 µM
DU-145 prostate
  GI50: 0.41 µM
  TGI: 3.74 µM
SR leukemia
  GI50: 0.11 µM
  TGI: 0.393 µM
A498 renal
  GI50: 0.214 µM
  TGI: 0.543 µM
LOX IMVI melanoma
  GI50: 0.176 µM
  TGI: 0.447 µM
OVCAR-4 ovarian
  GI50: 0.515 µM
  TGI: 13.2 µM
KM12 colon
  GI50: 0.173 µM
  TGI: 0.362 µM
OVCAR-5 ovarian
  GI50: 0.281 µM
  TGI: 0.678 µM
TK-10 renal
  GI50: 0.32 µM
  TGI: 0.867 µM
HL-60(TB) leukemia
  GI50: 0.34 µM
  TGI: 1.3 µM
SNB-19 CNS
  GI50: 1 µM
CAKI-1 renal
  GI50: 0.275 µM
  TGI: 1.02 µM
UACC-62 melanoma
  GI50: 0.171 µM
  TGI: 0.336 µM
U251 CNS
  GI50: 0.231 µM
  TGI: 0.759 µM
SK-MEL-5 melanoma
  GI50: 0.176 µM
  TGI: 0.353 µM
RPMI-8226 leukemia
  GI50: 0.204 µM
  TGI: 0.545 µM
SF-295 CNS
  GI50: 0.391 µM
  TGI: 1.83 µM
MCF7 breast
  GI50: 0.271 µM
  TGI: 1.3 µM
MDA-MB-435
  GI50: 0.184 µM
  TGI: 0.39 µM
EKVX NSCLC
  GI50: 0.778 µM
  TGI: 4.77 µM
HS 578T breast
  GI50: 0.232 µM
  TGI: 0.88 µM
HOP-62 NSCLC
  GI50: 0.23 µM
  TGI: 0.524 µM
SK-OV-3 ovarian
  GI50: 0.41 µM
  TGI: 1.89 µM
A549 NSCLC
  GI50: 0.276 µM
  TGI: 0.982 µM
HCT-15 colon
  GI50: 1.13 µM
  TGI: 3.9 µM
MALME-3M melanoma
  GI50: 0.236 µM
  TGI: 0.585 µM
BT-549 breast
  GI50: 0.137 µM
  TGI: 0.34 µM
SN12C renal
  GI50: 0.264 µM
  TGI: 3.38 µM
SK-MEL-28 melanoma
  GI50: 0.27 µM
  TGI: 0.853 µM
NCI-H522 lung
  GI50: 0.204 µM
  TGI: 0.958 µM
SF-268 CNS
  GI50: 0.376 µM
ACHN renal
  GI50: 0.342 µM
  TGI: 1.53 µM
